Patent US20240124714A1, “NEAR INFRARED DYES FOR BIOLOGICAL IMAGING AND OPTOELECTRONIC DEVICES” (Mississippi State University, priority 2022, published 2024)

Legend:
[1] = Absorption spectra (maximum absorption wavelength); type: physicochemical
Experimental: All chemicals and solvents were purchased from commercial suppliers and used without further purification unless other-wise specified. ^1H NMR (500 MHz) and ^13C NMR ([…]) spectra were recorded in deuterated solvents on a Bruker ADVANCE 500 NMR Spectrometer. J values are expressed in Hz and quoted chemical shifts are in ppm downfield from tetramethylsilane (TMS) reference using the residual protonated solvents as an internal standard. The signals have been designated as follows: s (singlet), d (doublet), t (triplet), m (multiplets). All the ^13C NMR are proton decoupled. High resolution mass spectra (HRMS) were determined on Broker-micrOTOF-Q II Mass Spectrometer. Concentrations are given in μM. Absorption spectra were acquired using a Cary 5000 UV-Vis-NIR spectrophotometer in a 1 cm quartz cell.
The IR spectrums of the closed (Compound 3) and opened (XanthCR-880) forms of the dye are very distinct. The IR spectrums were obtained in dichloromethane (DCM) and dimethyl sulfoxide (DMSO) (FIG. 2). The maximum absorption wavelength (λabs) of the closed form (Compound 3) is 372 nm. However, when the dye was trapped in the opened form as the ethyl ester (XanthCR-880), the λabs shifted to 880 nm in DCM and 890 nm in DMSO, both of which are at the edge of the NIR I region and trail into the NIR II region.

[2] = Photobleaching under continuous irradiation; type: physicochemical; settings: continuous irradiation at λPA for 60 min; 20 μM in CHCl3
Excerpt: Ideally PA contrast agents are photostable. When PA contrast agent are used in studies, they may be subjected to multiple imaging sessions, and as such are ideally resistant to photobleaching.

[3] = Fluorescence (fluorescent quantum yield attempt); type: physicochemical; settings: attempts to determine the fluorescent quantum yield
Excerpt: Fluorescence spectra were acquired using a custom-built setup with discrete excitation wavelengths ranging from 226 nm to 1059 nm with a temperature range from 4.2 K to 300 K using a liquid He bath cryostat. Alternatively, a Horiba QuantaMaster 8075-21 spectrofluorometer with xenon lamp excitation and liquid nitrogen cooled indium gallium arsenide solid state detector could be used. […] excitation was chosen to coincide with a Xe emission peak.

[4] = Photoacoustic spectrum (PA contrast agent compatibility); type: physicochemical
Experimental: Photoacoustic A imaging was performed on an iThera Medical MSOT inVision 128 tomographer.
(§1) The XanthCR-880 dye was evaluated for its compatibility as a PA contrast agent in chloroform (FIG. 3C) and PBS buffer and observed that the strongest intensity (XPA) was at 890 nm and 865 nm, respectively.

porcine liver esterase = experiment: Stability in the presence of esterase (absorbance); type: in vitro ADME; settings: room temperature, 30 min
Experimental: (§2) FIGS. 3A-3B show absorption studies depicting the stability of XanthCR-880 (20 μM) to the treatment of glutathione (10 mM) (FIG. 3A) and esterase (5 units) (FIG. 3B).
as §1

[5] = Stability of the dye against glutathione (change in absorption at 880 nm); type: in vitro ADME; settings: 17 μM dye, 40% DMSO/60% PBS, 10 mM reduced glutathione, after 30 min
Experimental: as §2
The XanthCR-880 dye was also shown to have excellent stability. The stability of XanthCR-880 dye was tested against glutathione, which is a potential reducing agent in biological media. The XanthCR-880 dye (17 μM) was prepared in 40% DMSO/60% PBS solution with 10 mM reduced glutathione and evaluated the change in the maximum absorption at 880 nm. The 10 mM concentration of reduced glutathione was selected to reflect the highest reported levels found in the body (i.e., liver). There was no change observed in the absorbance of the dye after 30 min.

maximum absorption wavelength (λabs) ([1]; closed form, spectra obtained in DCM and DMSO, solvent of this value not stated)	decrease of PA signal (photobleaching) [2]	wavelength of strongest photoacoustic intensity (λPA) ([4]; in PBS buffer)	wavelength of strongest photoacoustic intensity (λPA) ([4]; in chloroform (CHCl3), 20 μM)	change in the absorbance (porcine liver esterase)	maximum absorption wavelength (λabs) ([1]; in DCM)	maximum absorption wavelength (λabs) ([1]; in DMSO)	absorption maximum ([1]; solvent not stated)	change in the absorbance of the dye (maximum absorption at 880 nm) [5]	SMILES	fluorescence [3]
372 nm	–	–	–	–	–	–	–	–	O=C1OC2(c3ccc(-c4ccc(N5CCCCC5)s4)cc3Oc3cc(-c4ccc(N5CCCCC5)s4)ccc32)c2ccccc21 [Compound 3]	–
–	45%	865 nm	890 nm	no significant change	880 nm	890 nm	880 nm	no change	CCOC(=O)c1ccccc1C1=c2cc/c(=C3/C=CC(=[N+]4CCCCC4)S3)cc2Oc2cc(-c3ccc(N4CCCCC4)s3)ccc21.[Cl-] [XanthCR-880, 1-{5-[(3E)-9-[2-(Ethoxycarbonyl)phenyl]-6-[5-(piperidin-1-yl)thiophen-2-yl]-3H-xanthen-3-ylidene]-2,5-dihydrothiophen-2-ylidene}-1λ5-piperidin-1-ylium chloride]	sufficient fluorescence for brightness imaging
